Reference: patent publication US20050238581A1, “Dynamic hepatic recycling glucose tolerance test” (priority 2002, published 2005)

How the values were obtained:
[1] = [1, 2-^13C2]-glucose HR-GTT in C57BL/6 and PPARα KO mice; assay type: in vivo, C57BL/6 mice and PPARα KO mice; settings: for glucose recycling rate constant (kHR), slope of M1/M2 ratio against time: regression analysis
Protocol: Wild-type (C57BL/6) mice and PPARα KO mice were obtained. In this example, glucose was labeled with either stable isotopes of [1, 2-^13C2]-glucose, or [2-^2H]- and [6, 6-^2H2]-glucose and all isotopes were 99% enriched. The [1, 2-^13C2]-glucose, or a 1:1 mixture of [2-^2H]- and [6, 6-^2H2]-glucose, was then administered at 1 mg glucose/gm body weight by intraperitoneal injection. Blood was sampled at 0, 0.5, 1, 2, and 3 hours for [1, 2-^13C2]-glucose isotopomer analysis, and 0.5, 1 and 2 hours for deuterated glucose isotopomer analysis. Plasma glucose and lactate concentrations were determined by the use of a COBAS MIRA analyzer. All isotopomeric determinations were performed on a Hewlett Packard Mass Selective Detector (model 5973A) connected to an HP Gas Chromatograph (model 6890) using chemical ionization (CI) with 20% methane. The re-cycling of hepatic glucose, leading to the appearance of M1 glucose in blood, occurs when the glucose traverses the glucose<->G-6-P, pentose phosphate pathway, and possibly the TCA cycle. […] The slope of the increase in this ratio gives the in vivo glucose dependent futile re-cycling rate constant of glucose through G-6-P.

[2] = intraperitoneal hepatic recycling glucose tolerance test (HRGTT) with [1, 2-^13C2]-glucose load; assay type: in vivo, C57BL6 mice; settings: for decrease in total amount of M2 glucose: compared to amount appearing in plasma between 0-60 minutes
Protocol: Stable isotopes of the M2 isotopomer glucose was administered at 1 mg glucose/gm body weight by intraperitoneal injection. Animals were euthanized by an overdose of isoflurane anesthesia, and tissue from liver and skeletal muscle were rapidly dissected free, snap-frozen in liquid nitrogen, and stored at −80° C. until processed for isolation of RNA or glycogen. Cytosolic protein was extracted from the liver tissue after homogenization with 10 strikes in lysis buffer containing 0.25 M sucrose, I OmM Tris-HCL(pH7.4), 3 mM MgCL2, 0.1 mM PMSF, 20 mM NaF, 1 mM Na3VO4, 1 MM Na4P207, 1 μg/ml of leupeptin/aprotinin/pepstatin. The resulting cell lysate was filtered with 4 layers of cheesecloth. Nuclei were pelleted by centrifugation at 1000 g for 10 min. Mitochondria were precipitated by centrifugation at 15,000 g for 20 min from the supernatant. The cytosolic fraction was isolated as the supernatant obtained from last ultra-centrifugation at 100,000 g at 4° C. for 1 hr. Protein concentration from cytosol were measured by using an absorbance at 595 run (BCA kit from Pierce). 60 1 μg of protein extracts from cytosol were separated by 10% SDS-PAGE. The membrane blots were incubated with anti-GK at 1:2500 (v/v), anti-G6PDH at 1:2000 (v/v), anti-PEPCK at 1:500 (v/v), and anti-p-actin at 1:2000 (v/v), for either 1 hr in western washing buffer at RT or overnight at 4 C after blocking. The blots were hybridized with secondary antibodies coupled to horseradish peroxidase for 40 to 60 min at RT. Immunodetection was accomplished using enhanced chemiluminescence. Density of each band was determined by scanning the exposed film. The time course of glucose and lactate isotopomers in plasma, and glucose isotopomers in liver glycogen was determined using gas chromatography/mass spectrometry. The M1 glucose isotopomer, in which ^13C glucose can occupy the carbon 1 position, was produced via the action of the oxidative limb of the pentose phosphate pathway (PPP) on the administered M2 glucose isotopomer, and its re-entry into the gluconeogenic pathway via the non-oxidative limb of the PPP. The absorption of administered glucose was monitored by the time course of M2 isotopomer, and hepatic glucose recycling by the time course of M1 isotopomer of glucose.

Structure (SMILES): OC[C@H]1OC(O)[C@H](O)[C@@H](O)[C@@H]1O (stereo partly shown) [[1,2-^13C2]-glucose]
- glucose recycling rate constant (kHR), slope of M1/M2 ratio against time ([1]; C57BL/6 mice): 0.1086 ± 0.0049 per hour
- glucose recycling rate constant (kHR), slope of M1/M2 ratio against time ([1]; PPARα KO mice, p<0.025 vs C57BL/6): 0.0790 ± 0.0064 per hour
- fall in plasma M2 levels, faster in PPARα KO than in C57BL/6 (overall glucose clearance) ([1]; between 0.5 hours and 3.0 hours, p<0.001): 32%
- decrease in total amount of M2 glucose ([2]; 60-120 minutes): 30%
- decrease in total amount of M2 glucose ([2]; 120-180 minutes): 65%
- plasma M2 enrichment after steady decline ([2]; after the first 60 minutes, ip 1 mg/gm): 20.1±1.3%
- enrichment of [1, 2-^13C2]-glucose (M2) in the plasma glucose pool ([2]; enrichment rapidly achieved after ip injection of 1 mg/gm body weight): 55±1.0%
- contribution of direct pathway from glucose uptake to glycogen glucose deposited ([2]; glucose load 1 mg glucose/g body weight): less than 5%
- M2 isotopomer enrichment in liver glycogen glucose, start of decrease ([2]; liver glycogen, earlier time (2 hours)): 1.9%
- M2 isotopomer enrichment in liver glycogen glucose, end of decrease ([2]; liver glycogen, later time (3 hours)): 0.8%
